Values joined by “and” are separate entries in the source; they are usually repeats but may differ in a detail not shown here. Equal values may be shown once. Read-outs that look alike come from different tables or passages of the source.
Experiments:
C. elegans [1] = assay: microbe, parasite or virus in culture; conditions: Caenorhabditis elegans
C. elegans [2] = system: C. elegans
[3] = 24 h, read-out: Percentage of motility inhibition 24 h, Table S2, C. elegans SS assay, 110 μM, 24 h, averages of 4 data points
[4] = Table S2, C. elegans SS assay, 110 μM, averages of 4 data points
[5] = 0 h, read-out: Percentage of motility inhibition 0 h, Table S2, C. elegans SS assay, 110 μM, 0 h, averages of 4 data points
[6] = 0 h, read-out: Percentage of motility inhibition 0 h
[7] = 24 h, read-out: Percentage of motility inhibition 24 h

Row | SMILES | inhibition at 110 µM (C. elegans [1]; [3]) [%] | inhibition at 110 µM (C. elegans [1]; [5]) [%] | other results
1 | CC1(C)[C@@H](O)CC[C@]2(C)[C@H]3C(=O)C=C4[C@H]5C[C@@](C)(C(=O)O)CC[C@]5(C)CC[C@@]4(C)[C@]3(C)CC[C@@H]12 [18α-Glycyrrhetinic acid] | 18 | – | Percentage of motility inhibition 24 h (C. elegans [2]; [4]): 10%
2 | CC[C@H]1[C@@H]2C[C@H]3[C@@H]4N(C)c5ccccc5[C@]45C[C@@H]([C@H]2[C@H]5O)N3[C@@H]1O [Ajmaline] | – | 19 | Percentage of motility inhibition 0 h (C. elegans [2]; [4]): 13%
3 | C=C1CC[C@@H]2[C@](C)(CO)[C@H](O)CC[C@@]2(C)[C@@H]1C/C=C1/C(=O)OC[C@H]1O [Andrographolide] | 17 | – | Percentage of motility inhibition 24 h (C. elegans [2]; [4]): 19%
4 | C[C@H]1[C@H](OC(=O)CCC(=O)O)O[C@@H]2O[C@@]3(C)CC[C@H]4[C@H](C)CC[C@@H]1[C@@]24OO3 [Artesunate] | 30 | 12 | Percentage of motility inhibition 0 h (C. elegans [2]; [4]): 21%; Percentage of motility inhibition 24 h (C. elegans [2]; [4]): 15%
5 | O=c1cc(-c2ccccc2)oc2cc(O)c(O)c(O)c12 [Baicalein] | 12 | 10 | Percentage of motility inhibition 0 h (C. elegans [2]; 110 μM): 14%; Percentage of motility inhibition 24 h (C. elegans [2]; 110 µM): 19%
6 | O=C(O)[C@H]1O[C@@H](Oc2cc3oc(-c4ccccc4)cc(=O)c3c(O)c2O)[C@H](O)[C@@H](O)[C@@H]1O [Baicalin] | 15 | – | Percentage of motility inhibition 24 h (C. elegans [2]; 110 µM): 24%
7 | C=C(C)[C@@H]1CC[C@]2(C(=O)O)CC[C@]3(C)[C@H](CC[C@@H]4[C@@]5(C)CC[C@H](O)C(C)(C)[C@@H]5CC[C@]43C)[C@@H]12 [Betulinic acid] | – | 27 | Percentage of motility inhibition 0 h (C. elegans [2]; [4]): 22%
8 | CC12CCC(CC1=O)C2(C)C (stereo not drawn) [Camphor] | 5 | 0 | Percentage of motility inhibition 24 h (C. elegans [2]; [4]): 10%
9 | CC[C@@]1(O)C(=O)OCc2c1cc1n(c2=O)Cc2cc3ccccc3nc2-1 [Camptothecin] | 6 | 25 | Percentage of motility inhibition 24 h (C. elegans [2]; [4]): 3%
10 | O=c1c(-c2ccc(O)cc2)coc2cc(O)ccc12 [Daidzein] | 14 | – | Percentage of motility inhibition 24 h (C. elegans [2]; [4]): 10%
11 | COC(=O)[C@H]1[C@H]2C[C@@H]3c4[nH]c5ccccc5c4CCN3C[C@H]2C[C@@H](OC(=O)c2cc(OC)c(OC)c(OC)c2)[C@@H]1OC [Deserpidine] | 21 | – | Percentage of motility inhibition 24 h (C. elegans [2]; [4]): 23%
12 | CC[C@H]1OC(=O)[C@H](C)[C@@H](O[C@H]2C[C@@](C)(OC)[C@@H](O)[C@H](C)O2)[C@H](C)[C@@H](O[C@@H]2O[C@H](C)C[C@H](N(C)C)[C@H]2O)[C@](C)(O)C[C@@H](C)C(=O)[C@H](C)[C@@H](O)[C@]1(C)O [Erythromycin] | 5 | – | Percentage of motility inhibition 0 h (C. elegans [2]; [4]): 10% and 0%
13 | Cc1ccc(C(C)C)cc2c(C)ccc1-2 [Guaiazulene] | 24 | – | Percentage of motility inhibition 24 h (C. elegans [2]; 110 µM): 12%
14 | COC(=O)C[C@](O)(CCCC(C)(C)O)C(=O)O[C@@H]1C(OC)=C[C@]23CCCN2CCc2cc4c(cc2[C@H]13)OCO4 [Homoharringtonine] | – | 20 | Percentage of motility inhibition 0 h (C. elegans [2]; [4]): 12%; Percentage of motility inhibition 24 h (C. elegans [2]; [4]): 2% and 0%
15 | CC1=C[C@]23C(=O)[C@@H](C=C(CO)[C@@H](O)[C@]2(O)[C@H]1O)[C@H]1[C@@H](C[C@H]3C)C1(C)C [Ingenol] | 19 | – | Percentage of motility inhibition 0 h (C. elegans [2]; [4]): 0% and 1%
16 | COc1ccc2c(c1O)-c1c(OC)c(OC)cc3c1[C@H](C2)N(C)CC3 [Isocorydine] | – | 0 | Percentage of motility inhibition 24 h (C. elegans [2]; [4]): 7%
17 | CN1CC[C@]23C(=O)C[C@H]4C(=CCO[C@H]5CC(=O)N(c6c(O)cccc62)[C@H]3[C@H]54)C1 [Vomicine] | 0 | 0 | –
18 | C[C@@H](c1ncncc1F)[C@](O)(Cn1cncn1)c1ccc(F)cc1F [Voriconazole] | 0 | 19 | –
19 | CC(=O)OC[C@]12[C@H](OC(C)=O)[C@H](OC(C)=O)[C@@H]3[C@@H](OC(C)=O)[C@@]14O[C@@]3(C)COC(=O)c1cccnc1CCC(C)C(=O)O[C@@H]([C@H](OC(=O)c1ccco1)[C@@H]2OC(C)=O)[C@]4(C)O (stereo partly drawn) [Wilforgine] | 5 | 12 | –
20 | CC(=O)OC[C@]12[C@H](OC(C)=O)[C@H](OC(C)=O)[C@@H]3[C@@H](OC(C)=O)[C@@]14O[C@@]3(C)COC(=O)c1cccnc1CCC(C)C(=O)O[C@@H]([C@H](OC(=O)c1ccccc1)[C@@H]2OC(C)=O)[C@]4(C)O (stereo partly drawn) [Wilforine] | 9 | 23 | –
21 | COc1c(O)cc(O)c2c(=O)cc(-c3ccccc3)oc12 [Wogonin] | – | – | inhibition at 110 µM (C. elegans [1]; [6]): 23%; inhibition at 110 µM (C. elegans [1]; [7]): 5%
22 | COc1cc(O)c(CC=C(C)C)c(O)c1C(=O)/C=C/c1ccc(O)cc1 [Xanthohumol] | 13 | 23 | –

Row | SMILES | inhibition at 110 µM (C. elegans [1]; [3]) [%] | inhibition at 110 µM (C. elegans [1]; [5]) [%] | other results
23 | OC[C@@H](O)[C@H](O)[C@@H](O)CO [Xylitol] | 13 | 22 | –
24 | O=C[C@H](O)[C@@H](O)[C@H](O)CO [Xylose] | 11 | 17 | –
25 | CC1=CC(=O)[C@@H](O)[C@]2(C)[C@H]3[C@@H](O)[C@H](O)[C@]4(CO)OC[C@@]35[C@@H](C[C@@H]12)OC(=O)[C@H](O)[C@]54O [Yadanziolide A] | 36 | 0 | –
26 | O=C(O)[C@@H]1[C@H]2C[C@H]3c4[nH]c5ccccc5c4CCN3C[C@@H]2CC[C@@H]1O [Yohimbic acid] | 51 | 4 | –
27 | CCN1C[C@]2(COC)[C@H](O)C[C@H](OC)[C@]34C1[C@H]([C@H](OC)[C@H]23)[C@@]1(OC(C)=O)C[C@H](OC)[C@@]2(O)C[C@@H]4[C@@H]1[C@H]2OC(=O)c1ccc(OC)cc1 [Yunaconitine] | 5 | 24 | –
28 | Nc1ccn([C@H]2CC[C@@H](CO)O2)c(=O)n1 [Zalcitabine] | 20 | 19 | –
29 | CC(=O)N[C@H]1[C@H]([C@H](O)[C@H](O)CO)OC(C(=O)O)=C[C@@H]1N=C(N)N [Zanamivir] | 6 | 22 | –
30 | Cc1cn([C@H]2C[C@H](N=[N+]=[N-])[C@@H](CO)O2)c(=O)[nH]c1=O [Zidovudine] | 4 | 7 | –
31 | CCCCC[C@H](O)CC(=O)CCc1ccc(O)c(OC)c1 [[6]‐Gingerol] | 10 | 1 | –
32 | C[C@@H]1O[C@@H](O[C@H]2[C@H](O[C@H]3CC[C@@]4(C)[C@@H](CC[C@]5(C)[C@@H]4CC=C4[C@@H]6CC(C)(C)CC[C@]6(C(=O)O)CC[C@]45C)[C@]3(C)CO)OC[C@H](O)[C@@H]2O)[C@H](O)[C@H](O)[C@H]1O [alpha-Hederin] | – | – | inhibition at 110 µM (C. elegans [1]; [6]): 6%; inhibition at 110 µM (C. elegans [1]; [7]): 0%
33 | O[C@H]1[C@H](O)[C@@H](O)[C@H](O)[C@@H](O)[C@H]1O [i-Inositol] | 0 | 0 | –
34 | O=C(O)CCCCC1CCSS1 (stereo not drawn) [α-Lipoic Acid] | 3 | 9 | –
35 | CC1=CC[C@@H](C(C)(C)O)CC1 [α-Terpineol] | 17 | 22 | –
36 | CC(=O)OC(C)(C)C1CC=C(C)CC1 (stereo not drawn) [α-Terpinyl acetate] | 28 | 18 | –
37 | CC(C)[C@]12CC(=O)[C@H](C)[C@H]1C2 [α-Thujone] | 20 | 9 | –
38 | C[C@H]1[C@H](C)CC[C@]2(C)CC[C@]3(C)C(=CC[C@@H]4[C@@]5(C)CC[C@@H](O)[C@](C)(C(=O)O)[C@@H]5CC[C@]43C)[C@H]12 [β-Boswellic acid] | – | – | inhibition at 110 µM (C. elegans [1]; [6]): 32%; inhibition at 110 µM (C. elegans [1]; [7]): 22%
39 | C=C1CC/C=C(\C)CC[C@@H]2[C@@H]1CC2(C)C [β-Caryophyllene] | 27 | 28 | –
40 | CC(C)=CCC[C@H](C(=O)O)[C@H]1CC[C@]2(C)C3=C(CC[C@@]12C)[C@@]1(C)CCC(=O)C(C)(C)[C@H]1CC3 [β-Elemonic acid] | 28 | 23 | –
41 | C=C1C=CC(C(C)C)CC1 (stereo not drawn) [β-Phellandrene] | 20 | 17 | –
42 | C=C1CCC2CC1C2(C)C (stereo not drawn) [β-Pinene] | 12 | 2 | –
43 | CC1=CCC(C(C)C)=CC1 [γ-Terpinene] | 31 | 6 | –

Source: PMC11855827, “High-Throughput Screening of Five Compound Libraries for Anthelmintic Activity and Toxicity Leads to the Discovery of Two Flavonoid Compounds” (International Journal of Molecular Sciences, 2025)
